# Earlier results as cited in patent US20110040266A1, “ANTI-INSOMNIA COMPOSITIONS AND METHODS” (priority 2007, published 2011).
# Settings: tablet form; administered from 5 hours to 1 hour before waking
structure (smiles),measurement,value
"Cc1ccc(-c2nc3ccc(C)cn3c2CC(=O)N(C)C)cc1 [zolpidem, N,N,6-trimethyl-2-p-tolyl-imidazo[1,2-a]pyridine-3-acetamide]",residual effects of night-time dosing,results in residual drowsiness and sleepiness
